Assay results published in patent US6777425B2, “Isoquinoline compounds having antiinfective activity” (Genesoft Pharmaceuticals, Inc., priority 2001, dated 2004).

How the values were obtained:
[1] = system: B. cereus ATCC 11778; assay: NCCLS broth microdilution MIC, B. cereus; assay type: cell-based, Bacillus cereus; details: organism A = B. cereus ATCC 11778
From the text: (§1) Compounds according to this invention were screened for their in vitro activities against selected species of bacteria and fungi. […]

[2] = system: C. albicans ATCC 38247; assay: Antifungal MIC, C. albicans; assay type: cell-based, Candida albicans; details: organism B = C. albicans ATCC 38247
From the text: as §1

[3] = system: E. faecalis ATCC 29212; assay: NCCLS broth microdilution MIC, E. faecalis; assay type: cell-based; details: organism C = E. faecalis ATCC 29212
From the text: as §1

[4] = system: S. aureus ATCC 13709; assay: NCCLS broth microdilution MIC, S. aureus (MSSA); assay type: cell-based, Staphylococcus aureus; details: organism E = S. aureus ATCC 13709 (MSSA)
From the text: as §1

[5] = system: S. aureus ATCC 27660; assay: NCCLS broth microdilution MIC, S. aureus (MRSA); assay type: cell-based, Staphylococcus aureus; details: organism F = S. aureus ATCC 27660 (MRSA)
From the text: as §1

[6] = system: S. pneumoniae ATCC 49619; assay: NCCLS broth microdilution MIC, S. pneumoniae ATCC 49619; assay type: cell-based, Streptococcus pneumoniae; details: organism H = S. pneumoniae ATCC 49619
From the text: as §1

[7] = Staphylococcus aureus, read-out: Minimum Inhibitory Concentration (MIC)

Row | Compound | Minimum Inhibitory Concentration (MIC) [1] | Minimum Inhibitory Concentration (MIC) [2] | Minimum Inhibitory Concentration (MIC) [3] | Minimum Inhibitory Concentration (MIC) [4] | Minimum Inhibitory Concentration (MIC) [5] | Minimum Inhibitory Concentration (MIC) [6] | MIC ([1]; Bacillus cereus, ATCC11778, read-out: Minimum Inhibitory Concentration (MIC)) [µg/mL] | MIC ([2]; Candida albicans, ATCC38247, read-out: Minimum Inhibitory Concentration (MIC)) [µg/mL] | MIC ([3]; Enterococcus faecalis, ATCC29212, read-out: Minimum Inhibitory Concentration (MIC)) [µg/mL] | MIC [4, 7] [µg/mL] | MIC [5, 7] [µg/mL] | MIC ([6]; Streptococcus pneumoniae, ATCC49619, read-out: Minimum Inhibitory Concentration (MIC)) [µg/mL]
1 | CN(C)CCSCCn1cc(NC(=O)c2cc3ccccc3cn2)cc1C(=O)Nc1cc(C(=O)Nc2cc(C(=O)NCCN3CCSCC3)n(C)c2)n(C)c1 [Ib-80] | +++ (+++ = MIC ≦ 4) | +++ (+++ = MIC ≦ 4) | +++ (+++ = MIC ≦ 4) | +++ (+++ = MIC ≦ 4) | +++ (+++ = MIC ≦ 4) | +++ (+++ = MIC ≦ 4) | – | – | – | – | – | –
2 | CN(C)CCCn1cc(NC(=O)c2cc(NC(=O)c3cc4ccccc4cn3)cn2C)cc1C(=O)Nc1cc(C(=O)NCCN2CCOCC2)n(C)c1 [Ib-81] | +++ (+++ = MIC ≦ 4) | + (+ = 12 ≦ MIC ≦ 32) | +++ (+++ = MIC ≦ 4) | +++ (+++ = MIC ≦ 4) | +++ (+++ = MIC ≦ 4) | +++ (+++ = MIC ≦ 4) | – | – | – | – | – | –
3 | CN(C)CCCn1cc(NC(=O)c2cc(NC(=O)c3cc4ccccc4cn3)c[nH]2)cc1C(=O)Nc1cc(C(=O)NCCN2CCOCC2)n(C)c1 [Ib-82] | +++ (+++ = MIC ≦ 4) | + (+ = 12 ≦ MIC ≦ 32) | +++ (+++ = MIC ≦ 4) | +++ (+++ = MIC ≦ 4) | +++ (+++ = MIC ≦ 4) | +++ (+++ = MIC ≦ 4) | – | – | – | – | – | –
4 | CCN(CC)CCNC(=O)c1cc(NC(=O)c2cc(NC(=O)c3cc(NC(=O)c4cc5ccccc5cn4)cn3C)c[nH]2)cn1C [Ib-89] | +++ (+++ = MIC ≦ 4) | + (+ = 12 ≦ MIC ≦ 32) | +++ (+++ = MIC ≦ 4) | +++ (+++ = MIC ≦ 4) | +++ (+++ = MIC ≦ 4) | +++ (+++ = MIC ≦ 4) | – | – | – | – | – | –
5 | Cn1cc(NC(=O)c2cc(NC(=O)c3cc4ccccc4cn3)cn2CCCN2CCCCC2)cc1C(=O)Nc1ccc2cnccc2c1 [Ib-90] | +++ (+++ = MIC ≦ 4) | + (+ = 12 ≦ MIC ≦ 32) | +++ (+++ = MIC ≦ 4) | +++ (+++ = MIC ≦ 4) | +++ (+++ = MIC ≦ 4) | +++ (+++ = MIC ≦ 4) | – | – | – | – | – | –
6 | Cn1cc(NC(=O)c2cc(NC(=O)c3cc4ccccc4cn3)cn2CCCN2CCCC2)cc1C(=O)Nc1ccc2cnccc2c1 [Ib-91] | +++ (+++ = MIC ≦ 4) | >32 µg/mL | +++ (+++ = MIC ≦ 4) | +++ (+++ = MIC ≦ 4) | +++ (+++ = MIC ≦ 4) | +++ (+++ = MIC ≦ 4) | – | – | – | – | – | –
7 | Cn1cc(NC(=O)c2cc(NC(=O)c3cc(NC(=O)c4cc5ccccc5cn4)cn3C)c[nH]2)cc1C(=O)NCCCNC1CCCCC1 [Ib-92] | +++ (+++ = MIC ≦ 4) | >32 µg/mL | +++ (+++ = MIC ≦ 4) | +++ (+++ = MIC ≦ 4) | +++ (+++ = MIC ≦ 4) | +++ (+++ = MIC ≦ 4) | – | – | – | – | – | –
8 | Cn1cc(NC(=O)c2ccc(NC(=O)c3cc(NC(=O)c4cc5ccccc5cn4)cn3C)cc2)cc1C(=O)NCCN1CCC(O)CC1 [Ic-8] | +++ (+++ = MIC ≦ 4) | >32 µg/mL | +++ (+++ = MIC ≦ 4) | +++ (+++ = MIC ≦ 4) | +++ (+++ = MIC ≦ 4) | +++ (+++ = MIC ≦ 4) | – | – | – | – | – | –
9 | CCN(CC)CCNC(=O)c1cc(NC(=O)c2ccc(NC(=O)c3cc(NC(=O)c4cc5ccccc5cn4)cn3C)cc2)cn1C [Ic-9] | +++ (+++ = MIC ≦ 4) | >32 µg/mL | +++ (+++ = MIC ≦ 4) | +++ (+++ = MIC ≦ 4) | +++ (+++ = MIC ≦ 4) | +++ (+++ = MIC ≦ 4) | – | – | – | – | – | –
10 | Cn1cc(NC(=O)c2ccc(NC(=O)c3cc(NC(=O)c4cc5ccccc5cn4)cn3C)cc2)cc1C(=O)NCCN1CCCC1 [Ic-10] | +++ (+++ = MIC ≦ 4) | >32 µg/mL | +++ (+++ = MIC ≦ 4) | +++ (+++ = MIC ≦ 4) | +++ (+++ = MIC ≦ 4) | +++ (+++ = MIC ≦ 4) | – | – | – | – | – | –
11 | Cn1cc(NC(=O)c2ccc(NC(=O)c3cc(NC(=O)c4cc5ccccc5cn4)cn3C)cc2)cc1C(=O)NCCCN1CCOCC1 [Ic-11] | >32 µg/mL | >32 µg/mL | +++ (+++ = MIC ≦ 4) | +++ (+++ = MIC ≦ 4) | +++ (+++ = MIC ≦ 4) | +++ (+++ = MIC ≦ 4) | – | – | – | – | – | –
12 | CN1CCN(CCNC(=O)c2cc(NC(=O)c3ccc(NC(=O)c4cc(NC(=O)c5cc6ccccc6cn5)cn4C)cc3)cn2C)CC1 [Ic-14] | >32 µg/mL | >32 µg/mL | >32 µg/mL | +++ (+++ = MIC ≦ 4) | +++ (+++ = MIC ≦ 4) | +++ (+++ = MIC ≦ 4) | – | – | – | – | – | –
13 | CN(C)CCCNC(=O)c1cc(NC(=O)c2ccc(NC(=O)c3cc(NC(=O)c4cc5ccccc5cn4)cn3C)cc2)cn1C [Ic-15] | >32 µg/mL | >32 µg/mL | >32 µg/mL | +++ (+++ = MIC ≦ 4) | +++ (+++ = MIC ≦ 4) | +++ (+++ = MIC ≦ 4) | – | – | – | – | – | –
14 | CN(C)CCNC(=O)c1cc(NC(=O)c2ccc(NC(=O)c3cc(NC(=O)c4cc5ccccc5cn4)cn3C)cc2)cn1C [Ic-16] | +++ (+++ = MIC ≦ 4) | >32 µg/mL | +++ (+++ = MIC ≦ 4) | +++ (+++ = MIC ≦ 4) | +++ (+++ = MIC ≦ 4) | +++ (+++ = MIC ≦ 4) | – | – | – | – | – | –
15 | CC1CN(CCNC(=O)c2cc(NC(=O)c3ccc(NC(=O)c4cc(NC(=O)c5cc6ccccc6cn5)cn4C)cc3)cn2C)CC(C)O1 (stereo not drawn) [Ic-17] | +++ (+++ = MIC ≦ 4) | >32 µg/mL | +++ (+++ = MIC ≦ 4) | +++ (+++ = MIC ≦ 4) | +++ (+++ = MIC ≦ 4) | +++ (+++ = MIC ≦ 4) | – | – | – | – | – | –
16 | CCN(CCO)CCNC(=O)c1cc(NC(=O)c2ccc(NC(=O)c3cc(NC(=O)c4cc5ccccc5cn4)cn3C)cc2)cn1C [Ic-18] | +++ (+++ = MIC ≦ 4) | >32 µg/mL | +++ (+++ = MIC ≦ 4) | +++ (+++ = MIC ≦ 4) | +++ (+++ = MIC ≦ 4) | +++ (+++ = MIC ≦ 4) | – | – | – | – | – | –
17 | Cn1cc(NC(=O)c2cc3ccccc3cn2)cc1C(=O)Nc1cc(C(=O)Nc2ccc3sc(C(=O)NCCN4CCOCC4)cc3c2)n(C)c1 [Id-1] | – | – | – | – | – | – | < 4 | > 32 | < 4 | < 4 | < 4 | < 4
